Experimental findings from patent US4853384A, “1-carbonyl derivatives of 4-aryl-4-aryloxypiperidines” (Hoechst-Roussel Pharmaceuticals Inc., priority 1988, dated 1989) are described below.

Structures are written as SMILES.

Format in all cases: in vivo, mice (male, Charles River, CD-1)
In experiment [1] the test system is mice. In words: Metrazol lethality assay (MTZ), anticonvulsant activity. The following applies: Mus musculus, po. The method, then: (§1) The compounds of this invention are also useful as anticonvulsants due to their anticonvulsant activity in mammals. Anticonvulsant activity is measured in male mice using the supramaximal electroshock (SES) assay described in Arch. Int. Pharmacodyn. 92, pp. 97-107, (1952) and the metrazol lethality assay (MTZ) described in J. Pharmacol. Exp. Ther., 81, 402 (1944).
Groups of male mice (Charles River, CD-1), weighing 18 to 30 grams are employed in the Metrazol lethality assay. Test compounds are dissolved in distilled water or if insoluble, suspended in water, to which a surfactant, such as Tween-80 is added. The test compounds are administered orally, the administered dose being dissolved or suspended in 10 ml of solution or suspension per kg of animal body weight. Control animals (2 mice/group) receive water or water and Tween-80, i.e., the vehicle for administration of the test compound. Metrazol (pentylenetetrazol) is dissolved in water (concentration 225 mg of Metrazol/10 ml of solution), and the solution is administered subcutaneously to groups of five animals each at one or more time intervals of 15, 30, 60, 90, or 120 minutes after administration of the test compound. The number of animal alive 15 minutes after treatment with Metrazol is determined and recorded. The following formula is employed to calculate the percent protection against Metrazol lethality. [formula]
A dose range determination is performed by substantially the same procedure as the time response determination. In the dose range determination, five groups of 10 animals per group are employed. This determination is generally reserved for those compounds which protect against lethality by greater than 70% at the screening dose employed.
(§2) The anticonvulsant activity of several of the compounds of this invention as per the SES and MTZ assay procedures is provided in Table 2.

The test system of experiment [2] is mice. In words: supramaximal electroshock (SES) assay, anticonvulsant activity. The conditions noted are these: Mus musculus, ip. The method, then:
as §1
Groups of male mice (Charles River, CD-1) weighing 18 to 30 g are employed in the SES assay. Test compounds are dissolved in distilled water, or if insoluble, suspended in water containing one drop of a surfactant, such as Tween-80. Test compounds are generally administered intraperitoneally at a dose of 10 ml of solution, or suspension, per kg of animal body weight. The output terminals of an A.C. shocker, which delivers 206 volts rms for 300 msec, are placed across the animals' eyes, an electrode paste coating assuring contact of the terminals with the eyes. The test compound is administered and thereafter the subject animals are shocked.
Protection is expressed as normalized percent inhibition relative to vehicle control. [formula] A time response is carried out using 6 animals per group. Animals are tested at 30, 60 and 120 minutes post drug. Additional time periods are tested if indicated by previous tests. A dose range determination is generally reserved for those compounds which inhibit convulsions by greater than about 45-55% at the screening dose employed at the time the test was performed. When the peak activity time has been determined, a dose response is initiated, using 10 animals per group at that time period.
as §2
(Protection in the maximal electroshock model is a classic sign of anticonvulsant action.)

The subject of experiment [3] is mice. Nature of the experiment: phenyl-p-quinone (phenyl-p-benzoquinone) writhing assay in mice, analgesia. The method, then: The procedure employed to determine analgetic utility is a modification of the phenyl-p-benzoquinone writhing assay in mice, a standard assay for analgesia [Proc. Soc. Exptl. Bio. […] The solution is administered to the subject mice intraperitoneally at a dose of 10 ml per kg of body weight. A characteristic "writhe" an inward rotation of one or more feet with twisting and turning of the trunk, drawing in of the abdominal wall, lordosis and arching of the back, is produced. A total of 28 male mice (Charles River, CD-1), weighing 18 to 30 grams, are employed for a time response. The subject animals receive food and water ad libitum. Test compounds are dissolved in distilled water, or suspended in distilled water containing one drop of a suitable surfactant, such as Tween-80. […] A control group (2 animals per group) receive an equal volume of the vehicle. After the administration of the phenyl-p-quinone, the mice are place separately in one liter beakers, and after five minutes, are observed for ten minutes. The number of writhes for each animal is recorded. The following formula is used to compute the percent inhibition: [formula] The time period with the greatest percent of inhibition is considered the peak time.
On the technique in general: An intraperitoneal irritant provokes the stretching counted in writhing tests.

What is called ED50 is the dose at which the effect has come halfway, by size or by number of responders. Read a high ED50 as weaker potency. `CNC(=O)N1CCC(Oc2ccc(C(F)(F)F)cc2)(c2ccccc2)CC1` [1-(N-Methylamino)carbonyl-4-phenyl-4-(4-trifluoromethylphenoxy)piperidine] showed an ED50 in the experiment on mice [1] of 41.2 mg/kg. Compound `CCC1(c2ccccc2)C(=O)NC(=O)NC1=O` [phenobarbital, reference compound] yielded an ED50 with mice [2] of 8.4 mg/kg.

On to `CNC(=O)N1CCC(Oc2cccc(C(F)(F)F)c2)(c2ccccc2)CC1` [1-(N-Methylamino)carbonyl-4-phenyl-4-(3-trifluoromethylphenoxy)piperidine], for which the 50% effective dose (ED50) in the experiment with mice [2] stood at 43.5 mg/kg. `CC(=O)N1CCC(Oc2ccc(C(F)(F)F)cc2)(c2ccccc2)CC1` [1-Acetyl-4-phenyl-4-(4-trifluoromethylphenoxy)piperidine]: the “Analgesic Activity: % Inhibition of writhing at a screening dose of 20 mg/kg, s.c.” value (“Analgesic Activity: % Inhibition” below) in the experiment on mice [3] was determined as 32%. Besides, the values for the ED50 with mice [1] and in the experiment on mice [2] were 44.8 mg/kg and 32.1 mg/kg, respectively. `O=C(Cn1ccnc1)N1CCC(Oc2c(F)c(F)c(F)c(F)c2F)(c2ccccc2)CC1` [1-[2-(Imidazol-1-yl)acetyl]-4-(2,3,4,5,6-pentafluorophenoxy)-4-phenylpiperidine]: the 50% effect level in the experiment on mice [1] (ED50) was put at a dose of 38 mg/kg. Take `CC(=O)N1CCC(Oc2c(F)c(F)c(F)c(F)c2F)(c2ccccc2)CC1` [1-Acetyl-4-(2,3,4,5,6-pentafluorophenoxy)-4-phenylpiperidine]: the “Analgesic Activity: % Inhibition” value with mice [3] worked out at 38%. In the experiment with mice [1], this compound yielded an ED50 of 60.5 mg/kg. With `CC(=O)N1CCC(Oc2cccc(Cl)c2)(c2ccccc2)CC1` [1-Acetyl-4-(3-chlorophenoxy)-4-phenylpiperidine], the “Analgesic Activity: % Inhibition” value in the experiment on mice [3] turned out to be 33%. This compound yielded an ED50 in the experiment on mice [2] of 55.4 mg/kg. As for `NC(=O)N1CCC(Oc2ccc([N+](=O)[O-])cc2)(c2ccccc2)CC1` [1-Aminocarbonyl-4-(4-nitrophenoxy)-4-phenylpiperidine], the “Analgesic Activity: % Inhibition” value in the experiment on mice [3] worked out at 42%. Take `CC(=O)N1CCC(Oc2cccc(C(F)(F)F)c2)(c2ccccc2)CC1` [1-Acetyl-4-phenyl-4-(3-trifluoromethylphenoxy)piperidine]: in the experiment on mice [3], the “Analgesic Activity: % Inhibition” value is given as 48%. For `CNC(=O)N1CCC(Oc2ccc([N+](=O)[O-])cc2)(c2ccccc2)CC1` [1-(N-Methylamino)carbonyl-4-(4-nitrophenoxy)-4-phenylpiperidine], the “Analgesic Activity: % Inhibition” value with mice [3] is 34%. Moreover, the ED50 in the experiment on mice [1] is 55.2 mg/kg.

`CC(=O)Oc1ccccc1C(=O)O` [asprin, reference compound]: in the experiment on mice [3], the “Analgesic Activity: % Inhibition” value came out at 33%. `CNC(=O)N1CCC(Oc2c(F)c(F)c(F)c(F)c2F)(c2ccccc2)CC1` [1-(N-Methylamino)carbonyl-4-(2,3,4,5,6-pentafluorophenoxy)-4-phenylpiperidine] had an ED50 in the experiment on mice [1] of 64.3 mg/kg.
